What is called Kd is the constant that tells how readily two partners part at equilibrium. As a reminder, the EC50 is the concentration that produces a half-maximal response.

Consider eleven molecules from patent US6403638B1, “2,4-pentadienoic acid derivatives having selective activity for retinoid X (RXR) receptors” (Allergan Sales, Inc., priority 1998, dated 2002).

The target in assay [1] is T1, RXRγ (Homo sapiens, UniProt P48443).
T1 construct: expressed in transfected cells
T1 sequence (P48443 1-463): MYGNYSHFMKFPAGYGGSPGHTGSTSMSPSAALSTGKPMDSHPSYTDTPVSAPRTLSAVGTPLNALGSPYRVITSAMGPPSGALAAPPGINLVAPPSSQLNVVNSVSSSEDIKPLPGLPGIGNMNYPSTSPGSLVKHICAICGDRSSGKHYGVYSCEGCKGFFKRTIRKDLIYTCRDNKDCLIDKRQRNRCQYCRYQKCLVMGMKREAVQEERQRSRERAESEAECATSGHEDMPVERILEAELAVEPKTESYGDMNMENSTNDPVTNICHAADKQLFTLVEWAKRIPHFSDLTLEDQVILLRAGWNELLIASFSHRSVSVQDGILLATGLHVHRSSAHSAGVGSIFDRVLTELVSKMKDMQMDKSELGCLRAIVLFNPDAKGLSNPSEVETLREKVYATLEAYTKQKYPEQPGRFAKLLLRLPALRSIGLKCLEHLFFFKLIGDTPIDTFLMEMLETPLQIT
Put plainly: ligand binding assay. To be noted: read-out: Kd RXR γ binding. An excerpt: (§1) A holoreceptor transactivation assay and a ligand binding assay which measure the antagonist/agonist like activity of the compounds of the invention, or their ability to bind to the several retinoid receptor subtypes, respectively, are described in published PCT Application No. WO WO93/11755 (particularly on pages 30-33 and 37-41) published on Jun. 24, 1993, the specification of which is also incorporated herein by reference. A detailed experimental procedure for holoreceptor transactivations has been described by Heyman et al. Cell 68, 397-406, (1992); Allegretto et al. J. Biol. Chem. 268, 26625-26633, and Mangelsdorf et al. The Retinoids: Biology, Chemistry and Medicine, pp 319-349, Raven Press Ltd., New York, which are expressly incorporated herein by reference. The results obtained in this assay are expressed in EC50 numbers, as they are also in the chimeric receptor transactivation assay. The results of ligand binding assay are expressed in Kd numbers. (See Cheng et as. Biochemical Pharmacology Vol. 22 pp 3099-3108, expressly incorporated herein by reference.)

The target of assay [2] is T2, RXRα (Homo sapiens, UniProt P19793).
T2 construct: expressed in transfected cells
T2 sequence (P19793 1-462): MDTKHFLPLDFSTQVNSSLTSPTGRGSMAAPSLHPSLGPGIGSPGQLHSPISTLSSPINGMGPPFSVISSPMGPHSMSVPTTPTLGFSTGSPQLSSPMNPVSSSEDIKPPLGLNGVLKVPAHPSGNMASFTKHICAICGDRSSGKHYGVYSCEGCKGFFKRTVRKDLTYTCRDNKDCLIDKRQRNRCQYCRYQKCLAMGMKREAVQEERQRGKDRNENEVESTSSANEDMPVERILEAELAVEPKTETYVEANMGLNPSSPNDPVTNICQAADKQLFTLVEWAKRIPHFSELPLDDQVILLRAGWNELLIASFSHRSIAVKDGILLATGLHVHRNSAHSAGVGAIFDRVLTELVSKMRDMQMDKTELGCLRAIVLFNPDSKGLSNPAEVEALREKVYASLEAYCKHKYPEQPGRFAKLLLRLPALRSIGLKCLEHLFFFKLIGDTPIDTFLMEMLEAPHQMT
Description: ligand binding assay. To be noted: read-out: Kd RXR α binding.
Text: as §1

For assay [3], the target named is T2, RXRα. Description: RXR receptor transactivation assay. The assay is classed as cell-based. To be noted: for Emax: read-out: % Eff RXR α transactivation; for EC50: read-out: EC50 RXR α transactivation.
Text: The specification of U.S. Pat. No. 5,455,265 is hereby expressly incorporated by reference.
as §1

Assay [4] has as its target T3, RXRβ (Homo sapiens, UniProt P28702).
T3 construct: expressed in transfected cells
T3 sequence (P28702 1-533): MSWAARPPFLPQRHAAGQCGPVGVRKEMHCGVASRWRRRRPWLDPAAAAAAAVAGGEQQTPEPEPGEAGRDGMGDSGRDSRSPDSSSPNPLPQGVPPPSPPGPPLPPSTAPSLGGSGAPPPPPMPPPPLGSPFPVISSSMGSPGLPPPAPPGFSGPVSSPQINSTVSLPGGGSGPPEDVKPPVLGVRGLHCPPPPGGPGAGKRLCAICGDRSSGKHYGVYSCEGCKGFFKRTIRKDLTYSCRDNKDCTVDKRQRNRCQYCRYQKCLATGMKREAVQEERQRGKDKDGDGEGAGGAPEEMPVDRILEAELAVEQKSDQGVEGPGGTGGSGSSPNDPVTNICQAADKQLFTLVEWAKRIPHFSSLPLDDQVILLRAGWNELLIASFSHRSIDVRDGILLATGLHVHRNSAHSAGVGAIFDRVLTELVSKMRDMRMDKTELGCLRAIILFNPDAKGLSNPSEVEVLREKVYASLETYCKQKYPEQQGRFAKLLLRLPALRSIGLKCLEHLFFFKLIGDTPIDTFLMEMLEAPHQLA
Description: RXR receptor transactivation assay. The assay is classed as cell-based. To be noted: for Emax: read-out: % Eff RXR β transactivation; for EC50: read-out: EC50 RXR β transactivation.
Text: as §1

Assay [5] has as its target T1, RXRγ. Description: RXR receptor transactivation assay. The assay is classed as cell-based. To be noted: for Emax: read-out: % Eff RXR γ transactivation; for EC50: read-out: EC50 RXR γ transactivation.
Text: as §1

Assay [6] addresses T3, RXRβ. Put plainly: ligand binding assay. To be noted: read-out: Kd RXR β binding.
Text: as §1

Turning to `CCC1(c2cc(C(C)C)cc(C(C)C)c2)CC1/C=C/C(C)=C/C(=O)O` (single isomer, unassigned; (+)) [Compound 7], the values for the Kd at RXRγ [1] and on RXRα [2] were 7.3 nM and 0.05 nM, respectively. In addition, the Emax at RXRα [3] was found to be 147%; on RXRβ [4], 152%; on RXRγ [5], 156%. The half-maximal effective concentration (EC50) at RXRβ [4] is 0.06 nM.

Take `CCCC1(c2cc(C(C)(C)C)cc(C(C)(C)C)c2)CC1/C=C/C(C)=C/C(=O)O` (single isomer, unassigned; (+)) [Compound 14]: the dissociation constant (Kd) worked out at 3.7 nM at RXRγ [1] and 0.03 nM at RXRα [2]. Moreover, the Emax on RXRα [3] was 93%; on RXRβ [4], 80%; at RXRγ [5], 86%. Also, the figures for the concentration for a half-maximal effect (EC50) on RXRα [3], at RXRβ [4] and at RXRγ [5] were 9 nM, 4.3 nM and 1.3 nM, respectively.

Consider `CCCC1(c2ccc3c(c2)C(C(C)(C)C)=CCC3(C)C)CC1/C=C/C(C)=C/C(=O)O` (single isomer, unassigned; (+)) [Compound 22], for which the equilibrium dissociation constant (Kd) is 0.58 nM at RXRγ [1] and 0.027 nM on RXRα [2]. For the same molecule, the Emax at RXRα [3] worked out at 94%; on RXRβ [4], 88%; at RXRγ [5], 110%. Also, the results for the concentration for a half-maximal effect (EC50) on RXRα [3], on RXRβ [4] and on RXRγ [5] were 0.3 nM, 1.8 nM and 0.8 nM, respectively.

As for `CCCC1(c2ccc3c(c2)C(C(C)C)=CCC3(C)C)CC1/C=C/C(C)=C/C(=O)O` (single isomer, unassigned; (+)) [Compound 34], the values for the Kd on RXRγ [1] and on RXRα [2] were 1.4 nM and 0.01 nM, respectively. Further, the Emax stood at 105% at RXRα [3], 98% at RXRβ [4] and 115% at RXRγ [5]. Further, the EC50 on RXRα [3] is 0.05 nM; on RXRβ [4], 0.9 nM; on RXRγ [5] it was 0.1 nM.

Turning to `CC1=CC(C)(C)Oc2cc(C3(C)CC3/C=C/C(C)=C/C(=O)O)ccc21` (centres unmarked) [Compound 28], the values for the Kd on RXRγ [1] and on RXRα [2] were 3.1 nM and 0.21 nM, respectively. In addition, the figures for the Emax at RXRα [3], on RXRβ [4] and at RXRγ [5] were 103%, 111% and 96%, respectively. Moreover, the 50% effective concentration (EC50) on RXRα [3] came out at 0.05 nM; at RXRβ [4] it was 0.46 nM; on RXRγ [5] it was 0.14 nM.

Consider `CC(/C=C/[C@@H]1C[C@]1(C)c1ccc2c(c1)C(C(C)(C)C)=CCC2(C)C)=C\C(=O)O` [Compound 57], for which the Kd on RXRβ [6] was 0.8 nM; at RXRγ [1] it was 4.2 nM; at RXRα [2] it was 0.01 nM. In addition, the figures for the Emax on RXRα [3], at RXRβ [4] and on RXRγ [5] were 95%, 95% and 89%, respectively. Further, the EC50 at RXRα [3] worked out at 0.1 nM; on RXRβ [4] it was 0.7 nM; at RXRγ [5], 0.1 nM.

Consider `CC(/C=C/[C@@H]1C[C@]1(C)c1ccc2c(c1)C(C(C)C)=CCC2(C)C)=C\C(=O)O` [Compound 64, 7(1-Isoproply-4,4-dimethyl-3,4-dihydronaphthalen-7-yl](6S,7S)-6,7-methano-3,7-dimethyl-hepta-2E,4E-dienoic acid], for which the equilibrium dissociation constant (Kd) at RXRβ [6] came to 6 nM; at RXRγ [1] it was 3 nM; on RXRα [2] it was 0.7 nM. For the same molecule, the Emax amounted to 109% at RXRα [3], 109% at RXRβ [4] and 108% at RXRγ [5]. For the same molecule, the EC50 worked out at 0.1 nM at RXRα [3], 0.3 nM at RXRβ [4] and 0.1 nM on RXRγ [5].

For the molecule `CC(/C=C/[C@@H]1C[C@]1(C)c1ccc2c(c1)OC(C)(C)C=C2C(C)C)=C\C(=O)O` [Compound 87], the results for the dissociation constant (Kd) at RXRβ [6], at RXRγ [1] and at RXRα [2] were 2.9 nM, 0.32 nM and 0.05 nM, respectively. In addition, the Emax on RXRα [3] was 102%; on RXRβ [4], 107%; at RXRγ [5], 116%. The EC50 was found to be 0.1 nM at RXRα [3], 0.3 nM on RXRβ [4] and 0.1 nM on RXRγ [5].

Take `CC(/C=C/[C@@H]1C[C@]1(C)c1ccc2c(c1)OC(C)(C)C=C2C(C)(C)C)=C\C(=O)O` [Compound 88]: the Kd on RXRβ [6] was determined as 1.6 nM; on RXRγ [1], 1.4 nM; at RXRα [2] it was 0.17 nM. In addition, the Emax on RXRα [3] is 106%; at RXRβ [4] it was 107%; on RXRγ [5], 105%. Further, the EC50 at RXRα [3], at RXRβ [4] and at RXRγ [5] was 0.1 nM in each case.

For `CCCCC1=CC(C)(C)Oc2cc([C@@]3(C)C[C@H]3/C=C/C(C)=C/C(=O)O)ccc21` [Compound 89], the Kd is 0.6 nM at RXRβ [6], 1.4 nM at RXRγ [1] and 0.19 nM on RXRα [2]. Further, the Emax at RXRα [3] stood at 110%; at RXRβ [4] it was 99%; at RXRγ [5], 112%. In addition, the EC50 at RXRα [3], on RXRβ [4] and at RXRγ [5] was 0.1 nM in each case.

As to `CC(/C=C/[C@@H]1C[C@]1(C)c1cc(C(C)(C)C)cc(C(C)(C)C)c1)=C\C(=O)O` [Compound 96, 7-(3,5-di-t-Butylphenyl)-(6S,7S)-6,7-methano-3,7-dimethyl-hepta-2E,4E-dienoic acid], the Kd on RXRβ [6] came to 1.7 nM; on RXRγ [1], 2.8 nM; at RXRα [2], 0.6 nM. Also, the results for the Emax at RXRα [3], on RXRβ [4] and on RXRγ [5] were 87%, 85% and 112%, respectively. Moreover, the EC50 came out at 1 nM on RXRα [3], 9 nM on RXRβ [4] and 2 nM on RXRγ [5].
